Values quoted from earlier work as cited in article PMC11693862 (Acta Biochimica et Biophysica Sinica, 2024).

Experiments:
SARS-CoV and HCoV-229E = settings: cited from earlier work
[1] = in vivo; cited from earlier work
[2] = test system: Mpros of HCoV-NL63, HCoV-HUK1, MERS-CoV, and SARS-CoV; settings: cited from earlier work

## COc1cccc2[nH]c(C(=O)NC(CC(C)C)C(=O)NC(CC3CCNC3=O)C(=O)CO)cc12 (stereo not drawn) [PF-00835231]
SARS-CoV and HCoV-229E
  Antiviral activity, semi-maximum effective concentration (EC50): very low
[1]
  Oral bio-availability: relatively poor
[2]
  Inhibition of Mpros of HCoV-NL63, HCoV-HUK1, MERS-CoV, and SARS-CoV: inhibits
